Assays:
[1] = system: 16S rRNA gene of Citrobacter; assay: PCR targeting the 16S rRNA gene after EMA treatment, electrophoresis; type: cell-based, Citrobacter koseri; settings: EMA-treated injured cells of Citrobacter, EMA 10 μl of 1000 μg/ml per 1 ml, 4° C. 30 minutes, visible light 10 minutes
Experimental: (§1) The live cell counts of these live cell suspensions were Escherichia coli: 3.2×10^8 cfu/ml, Citrobacter: 6.7×10^7 cfu/ml, Salmonella: 1.9×10^8 cfu/ml, and Klebsiella: 4.8×10^8 cfu/ml.
(§2) 10 μl of an EMA solution prepared at a concentration of 1000 μg/ml by dissolving EMA (Sigma, catalog number: E2028) in sterilized water, and filtering the solution through a 0.45-μm microfilter was added to each of the suspensions of the gram-negative bacteria (live cells and injured cells) and gram-positive bacteria (live cells and injured cells) in a volume of 1 ml, and the mixture was left at 4° C. for 30 minutes under light shielding. Then, the suspension was placed on ice, and irradiated with visible light of 500 W from a lamp (FLOOD PRF, 100 V, 500 W, Iwasaki Electric Co., Ltd.) disposed at a distance of 20 cm from the suspension for 10 minutes. The above steps of adding the EMA solution and irradiating visible light may also be referred to as the “EMA treatment”.
(§3) 990 μl of physiological saline was added to each microtube, and the mixture was sufficiently stirred. […]

[2] = system: 16S rRNA gene of Klebsiella; assay: as above; type: cell-based, Klebsiella oxytoca; settings: EMA-treated injured cells of Klebsiella, EMA 10 μl of 1000 μg/ml per 1 ml, 4° C. 30 minutes, visible light 10 minutes
Experimental: as §1, §2, §3

[3] = system: 16S rRNA gene of the other bacteria; assay: as above; type: cell-based; settings: EMA-treated injured cells of the other bacteria, EMA 10 μl of 1000 μg/ml per 1 ml, 4° C. 30 minutes, visible light 10 minutes
Experimental: as §1
(§4) The live cell counts of these live cell suspensions were Bacillus: 3.0×10^7 cfu/ml, Listeria: 1.3×10^8 cfu/ml, and Staphylococcus: 1.1×10^6 cfu/ml.
as §2, §3

[4] = system: 23S rRNA gene of gram-negative bacteria and gram-positive bacteria; assay: PCR targeting the 23S rRNA gene after EMA treatment, electrophoresis; type: cell-based; settings: 150 ng template DNA in 50 μl
Experimental: as §1, §4, §2, §3

[5] = system: hlyA gene of Listeria; assay: PCR targeting the hlyA gene after EMA treatment and topoisomerase poison or DNA gyrase poison treatment; type: cell-based, Listeria monocytogenes; settings: Listeria injured cells
Experimental: (§5) The live cell count of the live cell suspension was 1.3×10^8 cfu/ml
(§6) Therefore, the time for leaving the suspension at 4° C. under light shielding after the addition of EMA was shortened to 5 minutes, and the visible light irradiation time was also shortened to 5 minutes.
(§7) As described above, 1 tube of 1 ml EMA-untreated live cell suspension, […] of 1 ml EMA-treated live cell suspension, 1 tube of 1 ml EMA-untreated injured cell suspension, and 7 tubes of 1 ml EMA-treated injured cell suspension were prepared.
(§8) The EMA-treated live cell and injured cell suspensions were divided into 6 sets, each of which consisted of 1 tube of the live cell suspension and 1 tube of injured cell suspension.
(§9) A master mix (total volume: 50 μl) of the following composition was prepared. • Ex-Taq® (Takara Shuzo, catalog number: RR001B; TaKaRa Ex Taq enzyme): 0.25 μl • 10× Ex-Taq® Buffer (Takara Shuzo, catalog number: RR001B): 5 μl • dNTP mixture (Takara Shuzo, catalog number: RR001B): 4 μl • 5 pmol/μl SEQ ID NO: 7 (hlyA-F) DNA: 2.5 μl • 5 pmol/μl SEQ ID NO: 8 (hlyA-R) DNA: 2.5 μl • 2×SYBR® Green (cyanine dye) (BMA, catalog number: 50513): 10 μl • Sterilized water: 15.75 μl • Template DNA (15 ng/μl): 10 μl 3-1-2) PCR Thermal Cycle Profile for Amplification of hlyA Gene
(§10) Each of the DNA solutions prepared in 2-3) mentioned above was diluted to 15 ng/μl with TE buffer, and 10 μl of the diluted solution was used as a template DNA in 3-1-1) mentioned above. That is, 150 ng of the template DNA was contained in 50 μl of the PCR mixture. As a negative control, 10 μl of TE buffer was used.
According to the PCR thermal cycle profile shown in 3-1-2) mentioned above, PCR was performed by using a real-time PCR apparatus i Cycler® (Biorad, model number: iQ).
(§11) For the detection of the hlyA gene amplification product, 3% agarose gel was used.

[6] = system: 16S rRNA gene of Listeria; assay: PCR targeting the 16S rRNA gene after EMA treatment and topoisomerase poison or DNA gyrase poison treatment; type: cell-based, Listeria monocytogenes; settings: Listeria injured cells
Experimental: as §5, §6, §7, §8
The “PCR thermal cycle profile for amplification of 16S rRNA gene” mentioned in Example 3, 3-2) (Table 3) was applied.
as §10, with “2-3)” for “2-3) mentioned above”, “3-1-1) or 3-2-1)” for “3-1-1)”
According to the PCR thermal cycle profile shown in 3-2-2) or 3-2-3) mentioned above, PCR was performed by using a real-time PCR apparatus i Cycler® (Biorad, model number: iQ).
as §11

[7] = system: 23S rRNA gene of Enterobacter; assay: Real-time PCR and TM analysis targeting the 23S rRNA gene after ciprofloxacin treatment; type: cell-based, Enterobacter sakazakii; settings: ciprofloxacin 72 hours; for result of PCR: PCR terminated after 27 cycles
Experimental: as §9, with “enzyme:” for “enzyme):”, “1 (23S-F)” for “7 (hlyA-F)”, “2 (23S-R) DNA: 2.5 μl • 5 pmol/μl SEQ ID NO: 3 (23S-MF) DNA: 2.5 μl • 5 pmol/μl SEQ ID NO: 4 (23S-MR)” for “8 (hlyA-R)”, “μl” for “μl 3-1-2) PCR Thermal Cycle Profile for Amplification of hlyA Gene”
The primers of SEQ ID NOS: 1 and 2 are primers for amplifying substantially all the region of 23S rRNA, and they provide an amplification fragment of about 2840 bp mainly from gram-negative bacteria. The primers of SEQ ID NOS: 3 and 4 correspond to the center region of 23S rRNA, and they provide an amplification fragment of about 900 bp from gram-positive bacteria (also from gram negative bacteria).
Each of the DNA solutions prepared in 1-3) was diluted to 15 ng/μl with TE buffer, and 10 μl of the diluted solution was used as a template DNA in 2-1). That is, 150 ng of the template DNA was contained in 50 μl of the PCR reaction mixture. As a negative control, 10 μl of TE buffer was used.
According to the PCR thermal cycle profile shown in 2-2) mentioned above, PCR and TM analysis (melting temperature analysis) of the amplification product were performed by using a real-time PCR apparatus i Cycler® (Biorad, model number: iQ). The threshold value (boundary value) of real-time PCR was set to a value obtained by multiplying the standard deviation SD of fluorescence amounts obtained with SYBR® Green (cyanine dye) for 0 to 10 cycles by 10. In each real-time PCR amplification curve, number of cycle showing a value exceeding the threshold value is referred to as “Ct value” hereafter.

[8] = system: 23S rRNA gene of Listeria; assay: Real-time PCR targeting the 23S rRNA gene after ciprofloxacin treatment; type: cell-based, Listeria monocytogenes; settings: PCR terminated after 20 cycles
Experimental: as §9, with “enzyme:” for “enzyme):”, “1 (23S-F)” for “7 (hlyA-F)”, “2 (23S-R) DNA: 2.5 μl • 5 pmol/μl SEQ ID NO: 3 (23S-MF) DNA: 2.5 μl • 5 pmol/μl SEQ ID NO: 4 (23S-MR)” for “8 (hlyA-R)”, “μl” for “μl 3-1-2) PCR Thermal Cycle Profile for Amplification of hlyA Gene”
The primers of SEQ ID NOS: 1 and 2 are primers for amplifying substantially all the region of 23S rRNA, and they provide an amplification fragment of about 2840 bp mainly from gram-negative bacteria. […]
According to the PCR thermal cycle profile shown in 2-2) mentioned above, PCR and TM analysis (melting temperature analysis) of the amplification product were performed by using a real-time PCR apparatus i Cycler® (Biorad, model number: iQ). The threshold value (boundary value) of real-time PCR was set to a value obtained by multiplying the standard deviation SD of fluorescence amounts obtained with SYBR® Green (cyanine dye) for 0 to 10 cycles by 10. […]

[9] = EMA treatment alone (5 minutes, visible light 5 minutes)
[10] = poison used together with EMA treatment, 30° C. for 30 minutes

Structure (SMILES): CC[n+]1c(-c2ccccc2)c2cc(N=[N+]=[N-])ccc2c2ccc(N)cc21 [EMA, ethidium monoazide]
- PCR amplification product [1]: no PCR amplification product was observed
- PCR amplification product [2]: no PCR amplification product was observed
- PCR amplification product [3]: amplification products were observed
- inhibition of PCR ([4]; injured cells at a level of 10^8 cfu/ml): completely inhibited
- inhibition of PCR ([4]; live cells): not substantially completely inhibited
- inhibition of DNA amplification [5, 9]: only slightly inhibited
- inhibition of DNA amplification [6, 9]: only slightly inhibited

Structure (SMILES): CC[C@@]1(O)C(=O)OCc2c1cc1n(c2=O)Cc2cc3ccccc3nc2-1 [camptothecin]
- inhibition of DNA amplification [6, 10]: markedly inhibited

Structure (SMILES): O=C(O)c1cn(C2CC2)c2cc(N3CCNCC3)c(F)cc2c1=O [ciprofloxacin]
- Ct (injured cells, 72 hours of Cip)−Ct (injured cells, No Cip) ([7]; Enterobacter injured cells): 17
- result of PCR ([7]; Enterobacter injured cells): negative
- Ct (live cells, 72 hours of Cip)−Ct (live cells, No Cip) ([7]; Enterobacter live cells): 13
- result of PCR ([7]; Enterobacter live cells): positive
- TM pattern analysis of the PCR amplification product ([7]; Enterobacter sakazakii injured cells): is not the targeted amplification product
- TM pattern analysis of the PCR amplification product ([7]; Enterobacter sakazakii live cells): corresponds to the 23S rRNA gene as the target
- result of PCR ([8]; Listeria injured cells): negative
- result of PCR ([8]; Listeria live cells): positive

Structure (SMILES): Cc1c2ccncc2c(C)c2c1[nH]c1ccccc12 [ellipticine]
- inhibition of DNA amplification [6, 10]: markedly inhibited

Structure (SMILES): COc1cc([C@@H]2c3cc4c(cc3[C@@H](O[C@@H]3O[C@@H]5CO[C@@H](C)O[C@H]5[C@H](O)[C@H]3O)[C@H]3COC(=O)[C@H]23)OCO4)cc(OC)c1O [etoposide]
- inhibition of DNA amplification [5, 10]: markedly inhibited
- inhibition of DNA amplification [6, 10]: markedly inhibited

Structure (SMILES): O=C1c2c(O)ccc(O)c2C(=O)c2c(NCCNCCO)ccc(NCCNCCO)c21 [mitoxantrone]
- inhibition of DNA amplification [5, 10]: markedly inhibited

Source: patent publication US9567625B2, “Method for detection of microorganism and kit for detection of microorganism” (MORINAGA MILK INDUSTRY CO., LTD., priority 2006, dated 2017)
